Experiments:
[1] = molecular target: T1, CYP2D6 (Homo sapiens, UniProt P10635); assay: Inhibition of human liver microsomal CYP2D6; assay type: in vitro ADME; conditions: human liver microsomes, 10 μM test substance; read-out: Relative inhibition rate (%) CYP2D6
T1 construct: from tissue; host or cells: human liver microsomes
Experimental: (§1) Experimental purpose: The inhibitory effects of the test compounds on the major metabolizing enzymes CYP1A2, CYP2C19, CYP2D6 and CYP3A4 in microsomes were evaluated using the human liver microsomal system. Experimental method: The test substance was incubated with a suspension of human liver microsomes containing cytochrome P450 enzymes CYP1A2, CYP2C19, CYP2D6 and CYP3A4 at a concentration of 10 μM in the final incubation system. The known substrates were metabolized by the corresponding single enzymes to generate specific metabolites, and the metabolites were determined by UPLC-MS/MS method. The relative inhibition rate (%) was calculated by the percentage reduction of metabolite production by the test compound and solvent DMSO in the same time period. N is the concentration value of the probe substrate metabolite and it is assumed that the […] with or without inhibitor at 0 min is 0. N+inh is the metabolite concentration in the group with inhibitor, and Nveh is the metabolite concentration in the group without inhibitor. The results of the inhibition test of the compounds of the present invention on human liver microsomal CYP enzymes are shown in Table C.

[2] = molecular target: T2, hTLR7 (Homo sapiens, UniProt Q9NYK1); assay: Agonistic activity on human TLR7 in HEK-Blue hTLR7 cells (QUANTI-Blue); assay type: cell-based; conditions: 24 h incubation, OD650, read-out: hTLR 7 EC50
T2 construct: expressed in transfected cells; host or cells: HEK-Blue hTLR7 cells
T2 sequence (Q9NYK1 27-1049): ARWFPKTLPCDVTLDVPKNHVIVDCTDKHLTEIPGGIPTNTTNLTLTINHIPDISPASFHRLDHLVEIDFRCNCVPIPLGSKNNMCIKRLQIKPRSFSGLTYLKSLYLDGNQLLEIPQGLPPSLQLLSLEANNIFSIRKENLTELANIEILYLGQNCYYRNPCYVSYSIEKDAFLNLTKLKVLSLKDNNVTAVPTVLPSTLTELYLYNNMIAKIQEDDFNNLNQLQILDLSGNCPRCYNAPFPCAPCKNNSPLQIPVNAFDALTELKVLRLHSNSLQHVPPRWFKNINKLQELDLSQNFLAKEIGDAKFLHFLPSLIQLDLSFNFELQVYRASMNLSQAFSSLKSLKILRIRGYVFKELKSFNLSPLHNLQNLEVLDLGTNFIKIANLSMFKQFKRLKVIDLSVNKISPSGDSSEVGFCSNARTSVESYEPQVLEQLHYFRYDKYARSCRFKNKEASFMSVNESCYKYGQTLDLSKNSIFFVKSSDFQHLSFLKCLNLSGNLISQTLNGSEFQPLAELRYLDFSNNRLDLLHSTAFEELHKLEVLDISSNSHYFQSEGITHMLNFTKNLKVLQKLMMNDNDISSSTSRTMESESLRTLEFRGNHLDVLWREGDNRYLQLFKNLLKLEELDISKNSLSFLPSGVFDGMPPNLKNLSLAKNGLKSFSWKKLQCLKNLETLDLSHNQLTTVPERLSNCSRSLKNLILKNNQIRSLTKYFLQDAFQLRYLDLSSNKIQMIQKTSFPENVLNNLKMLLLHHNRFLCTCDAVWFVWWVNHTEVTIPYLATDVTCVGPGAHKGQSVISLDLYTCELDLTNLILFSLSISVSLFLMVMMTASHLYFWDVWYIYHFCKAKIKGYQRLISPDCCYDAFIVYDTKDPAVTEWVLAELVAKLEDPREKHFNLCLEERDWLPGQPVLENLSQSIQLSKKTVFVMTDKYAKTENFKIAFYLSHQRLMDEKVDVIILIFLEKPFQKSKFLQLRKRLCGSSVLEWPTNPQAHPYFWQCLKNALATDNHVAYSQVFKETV
Experimental: Purpose: HEK-Blue™ hTLR7 and HEK-Blue™ hTLR8 cells were used to detect the agonist and cytotoxic activities of compounds against hTLR7 and hTLR8.
The experimental steps were as shown below: • 1) Preparation of compound: The compound was prepared into a 20 mM stock solution with DMSO, and then the stock solution was diluted 3-fold in a gradient and added to a 96-well plate, for a total of 10 concentrations, with duplicate wells for each concentration. For negative control wells, 0.5 μL DMSO was added to each well. The final DMSO concentration was 0.5%. • 2) HEK-Blue™ hTLR7 or HEK-Blue™ hTLR8 cells were suspended in culture medium and then seeded into 96-well plates containing compounds at a cell count of 50,000 per well. The compounds and cells were incubated for 24 h at 37° C., 5% Co2. • 3) QUANTI-Blue was used for the detection solution: to a mixture of 1 mL of QB reagent and 1 mL of QB buffer was added 98 mL of sterile water, the mixture was mixed and dissolved, and then placed at room temperature for 10 min. • 4) Activity test of the compound: 20 μL of the culture supernatant in step 2) was added to each well of a 96-well plate containing 180 μL of QUANTI-Blue detection solution. After incubation at 37° C. for 1 h, the absorbance at 650 nm (OD650) was detected using a multifunctional microplate reader Flextation III. • 5) Detection of cell activity: The chemiluminescent signal (RLU) was detected using the multifunctional microplate reader Flextation III according to the instructions of Celltiter-Glo. • 6) Data analysis
Activity of compounds: OD650 values were analyzed using GraphPad Prism software, and the compound dose-effect curves were fitted to calculate the EC50 values of the compounds.

[3] = molecular target: T3, CYP2C19 (Homo sapiens, UniProt P33261); assay: Inhibition of human liver microsomal CYP2C19; assay type: in vitro ADME; conditions: human liver microsomes, 10 μM test substance; read-out: Relative inhibition rate (%) CYP2C19
T3 construct: from tissue; host or cells: human liver microsomes
T3 sequence (P33261 whole entry): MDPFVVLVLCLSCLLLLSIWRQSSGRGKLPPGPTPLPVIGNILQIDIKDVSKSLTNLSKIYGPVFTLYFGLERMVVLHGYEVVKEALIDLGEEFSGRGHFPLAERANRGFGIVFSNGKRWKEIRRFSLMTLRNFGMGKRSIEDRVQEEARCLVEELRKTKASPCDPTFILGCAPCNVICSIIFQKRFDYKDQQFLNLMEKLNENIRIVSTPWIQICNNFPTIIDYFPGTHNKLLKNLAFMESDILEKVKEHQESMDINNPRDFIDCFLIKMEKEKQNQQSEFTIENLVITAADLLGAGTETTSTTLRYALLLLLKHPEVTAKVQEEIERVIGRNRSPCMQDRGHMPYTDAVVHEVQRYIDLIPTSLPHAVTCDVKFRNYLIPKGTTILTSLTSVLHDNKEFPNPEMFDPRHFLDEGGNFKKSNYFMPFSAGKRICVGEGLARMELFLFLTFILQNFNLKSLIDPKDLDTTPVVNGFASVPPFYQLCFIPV
Experimental: as §1

[4] = test system: CYP1A2; assay: Induction of CYP1A2 in frozen human hepatocytes; assay type: in vitro ADME; conditions: 72 h induction, concentration and readout not stated
Experimental: (§2) Experimental purpose: Using frozen human hepatocytes as the test system, the induction effects of the test substances on CYP1A2, CYP2B6 and CYP3A4 were evaluated from two aspects of enzyme activity and mRNA level.
(§3) Experimental method: 24 hours after cell plating, induction was started by adding medium containing the test compound (test concentrations were 10, 1, and 0.1 μM), and fresh drug-containing medium was replaced every 24 hours. After 72 hours of induction, the medium was replaced with medium containing CYP1A2, CYP2B6, and CYP3A4 specific substrates for 30 minutes of incubation. 100 μL was taken for treatment, and the labeled metabolites of the substrates were detected to evaluate the enzyme activity level. Finally, the cells were lysed and reverse transcribed, and the expression levels of CYP1A2, CYP2B6 and CYP3A4 genes in the cells were evaluated by real-time quantitative PCR.
(§4) The induction fold of the test compound compared with the blank control and the induction percentage of the test compound compared with the positive control were used as the basis for evaluating the induction potential of the test compound. Among them, the positive control for CYP1A2 is Omeprazole; the positive control for CYP2B6 is Phenobarbital; the positive control for CYP3A4 is Rifampicin.

[5] = test system: CYP3A4; assay: Induction of CYP3A4 in frozen human hepatocytes; assay type: in vitro ADME; conditions: 72 h induction, concentration and readout not stated; for CYP3A4 Induction percentage relative to positive control (%): positive control Rifampicin
Experimental: as §2, §3, §4

[6] = molecular target: T4, CYP1A2 (Homo sapiens, UniProt P05177); assay: Inhibition of human liver microsomal CYP1A2; assay type: in vitro ADME; conditions: human liver microsomes, 10 μM test substance; read-out: Relative inhibition rate (%) CYP1A2
T4 construct: from tissue; host or cells: human liver microsomes
T4 sequence (P05177 1-516): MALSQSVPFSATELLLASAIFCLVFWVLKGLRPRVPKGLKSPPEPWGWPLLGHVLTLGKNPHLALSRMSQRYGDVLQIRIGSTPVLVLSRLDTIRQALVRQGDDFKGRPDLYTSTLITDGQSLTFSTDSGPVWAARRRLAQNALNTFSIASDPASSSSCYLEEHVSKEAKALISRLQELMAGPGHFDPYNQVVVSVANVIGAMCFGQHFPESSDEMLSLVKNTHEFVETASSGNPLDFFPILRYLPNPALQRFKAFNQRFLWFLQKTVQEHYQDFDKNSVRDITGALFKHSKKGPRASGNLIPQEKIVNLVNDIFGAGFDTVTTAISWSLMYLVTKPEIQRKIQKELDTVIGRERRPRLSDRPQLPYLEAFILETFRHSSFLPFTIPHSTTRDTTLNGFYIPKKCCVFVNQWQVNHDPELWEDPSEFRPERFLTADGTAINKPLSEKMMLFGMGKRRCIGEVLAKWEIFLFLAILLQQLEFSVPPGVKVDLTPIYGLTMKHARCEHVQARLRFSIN
Experimental: as §1

T1 sequence (P10635 whole entry): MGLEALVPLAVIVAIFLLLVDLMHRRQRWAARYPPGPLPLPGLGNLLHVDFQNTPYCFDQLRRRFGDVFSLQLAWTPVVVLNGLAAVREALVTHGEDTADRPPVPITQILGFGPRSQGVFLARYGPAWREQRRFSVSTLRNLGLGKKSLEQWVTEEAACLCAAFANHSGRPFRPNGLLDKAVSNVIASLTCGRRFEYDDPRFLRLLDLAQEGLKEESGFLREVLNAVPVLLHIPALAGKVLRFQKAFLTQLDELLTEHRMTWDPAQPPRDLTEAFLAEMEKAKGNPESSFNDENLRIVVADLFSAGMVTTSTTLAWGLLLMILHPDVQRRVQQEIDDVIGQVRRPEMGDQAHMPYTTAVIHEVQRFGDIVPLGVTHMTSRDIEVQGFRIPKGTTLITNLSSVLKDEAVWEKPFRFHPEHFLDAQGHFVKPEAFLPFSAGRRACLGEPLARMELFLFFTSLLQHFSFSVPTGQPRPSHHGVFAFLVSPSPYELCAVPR

inhibition at 10 µM [1]	EC50 [2]	inhibition at 10 µM [3]	CYP1A2 Induction fold relative to blank control [4]	CYP3A4 Induction fold relative to blank control [5]	CYP3A4 Induction percentage relative to positive control (%) [5]	inhibition at 10 µM [6]	SMILES
18.1%	> 100 µM	9.3%	0.7	0.6	−1.5%	-10.5%	CCCC[C@](C)(CO)Nc1nc(N)nc2cc(-c3cc(=O)n(C)cc3CN3CCCCC3)ccc12 [Example 8]
9.5%	90.3 µM	10.5%	0.6	1.4	1.5%	-4.1%	CCCC[C@](C)(CO)Nc1nc(N)nc2cc(-c3cc(=O)[nH]cc3CN(C)CCOC)cnc12 [Example 21]
12.9%	29.5 µM	30.5%	0.8	2.0	2.0%	5.1%	CCCCN(C)Cc1c[nH]c(=O)cc1-c1cnc2c(N[C@@](C)(CO)CCCC)nc(N)nc2c1 [Example 28, (R)-4-(2-Amino-4-((1-hydroxy-2-methylhexan-2-yl)amino)pyrido[3,2-d]pyrimidin-7-yl)-5-((butyl(methyl)amino)methyl)pyridin-2(1H)-one]
31.4%	68.6 µM	9.7%	0.4	1.3	0.9%	2.7%	C=CCCN(C)Cc1c[nH]c(=O)cc1-c1ccc2c(N[C@@](C)(CO)CCCC)nc(N)nc2c1 [Example 35]

From patent US20250163051A1, “PYRIMIDO AROMATIC RING COMPOUND AND USE THEREOF IN DRUG” (SUNSHINE LAKE PHARMA CO., LTD., priority 2022, published 2025)
